Reference: the SangsterLogP compilation

Experiment: not given

Row | Structure (SMILES) | logP
1 | Cc1cc2c(ccc3c(C)c(C)c(=O)oc32)o1 | 3.27
2 | COc1c2oc(=O)c(C)cc2cc2c(C)c(C)oc12 | 3.28
3 | Cc1sc2cc3oc(=O)cc(C)c3cc2c1C | 3.48
4 | Cc1oc2nc3oc(=O)c(C)c(C)c3cc2c1C | 2.71
5 | Cc1cc2c(cc(C)c3c(C)cc(=O)oc32)o1 | 3.36
6 | Cc1cc(=O)oc2c1cc(C)c1occ(C)c12 | 3.23
7 | Cc1cc(=O)n(C)c2c1cc(C)c1occ(C)c12 | 3.3
8 | Cc1cc2c(o1)c(C)c(C)c1ccc(=O)oc12 | 3.26
9 | Cc1oc2nc3oc(=O)ccc3c(C)c2c1C | 2.19
10 | Cc1oc2ccc3c(C)cc(=O)[nH]c3c2c1C | 3.18
11 | Cc1cc2c(ccc3c(C)cc(=O)n(C)c32)o1 | 3.08
12 | Cc1coc2nc3oc(=O)cc(C)c3cc12 | 1.82
13 | Cc1cc2c(ccc3c(C)c(C)c(=O)n(C)c32)o1 | 3.54
14 | Cc1cc(=O)[nH]c2c1cc(C)c1occ(C)c12 | 3.13
15 | Cc1c(C)c2cc(C)c3occc3c2oc1=O | 3.23
16 | Cc1sc2c(C)cc3c(C)cc(=O)oc3c2c1C | 4.09
17 | Cc1c(C)c2cc3c(C)coc3nc2oc1=O | 2.25
18 | Cc1oc2ccc3c(C)cc(=O)oc3c2c1C | 3.28
19 | Cc1coc2nc3oc(=O)cc(C)c3c(C)c12 | 2.25
20 | Cc1c2ccoc2cc2oc(=O)ccc12 | 2.33
21 | Cc1cc2c(o1)c(C)cc1c(C)cc(=O)n(C)c12 | 3.43
22 | Cc1cc2c(C)cc3oc(=O)cc(C)c3c2o1 | 3.25
23 | Cc1cc2cc3c(C)cc(=O)oc3c(C)c2o1 | 3.25
24 | Cc1c(C)c2ccc3occ(C)c3c2oc1=O | 3.25
25 | Cc1c(C)c2cc3c(C)coc3c(C)c2oc1=O | 3.62
26 | Cc1sc2ccc3c(C)cc(=O)oc3c2c1C | 3.65
27 | Cc1cc2c(o1)c(C)cc1c(C)cc(=O)oc12 | 3.15
28 | Cc1coc2c(C)c3oc(=O)cc(C)c3cc12 | 3.25
29 | Cc1oc2c(C)cc3c(C)cc(O)nc3c2c1C | 3.5

Continued, values first:

Row | logP | Structure (SMILES)
30 | 2.79 | Cc1cc2c(ccc3c(C)cc(=O)oc32)o1
31 | 2.85 | Cc1cc2c(o1)c(C)cc1ccc(=O)oc12
32 | 2.93 | Cc1cc2cc3ccc(=O)oc3c(C)c2o1
33 | 2.82 | Cc1cc(=O)oc2c(C)c3occc3cc12
34 | 2.49 | Cc1cc2c(ccc3ccc(=O)oc32)o1
35 | 2.81 | Cc1cc(=O)oc2c1ccc1occ(C)c12
36 | 1.73 | Cc1coc2nc3oc(=O)ccc3c(C)c12
37 | 3.27 | Cc1oc2cc3oc(=O)ccc3c(C)c2c1C
38 | 3.25 | Cc1c(C)c2cc3ccoc3c(C)c2oc1=O
39 | 2.82 | Cc1cc2cc3c(C)cc(=O)oc3cc2o1
40 | 2.79 | Cc1coc2cc3oc(=O)ccc3c(C)c12
41 | 2.48 | Cc1c2occc2cc2ccc(=O)oc12
42 | 2.77 | Cc1c(C)c2cc3ccoc3cc2oc1=O
43 | 2.5 | Cc1cc2occc2c2oc(=O)ccc12
44 | 2.88 | Cc1cc2ccc(=O)oc2c2c(C)coc12
45 | 3.22 | Cc1oc2cc3oc(=O)cc(C)c3cc2c1C
46 | 2.47 | Cc1coc2cc3oc(=O)ccc3cc12
47 | 2.51 | Cc1coc2ccc3ccc(=O)oc3c12
48 | 2.94 | Cc1oc2ccc3ccc(=O)oc3c2c1C
49 | 2.66 | COc1c2occc2cc2ccc(=O)sc12
50 | 2.97 | Cc1cc2c(ccc3cc(C)c(=O)oc32)o1

Row | logP | Structure (SMILES)
51 | 2.27 | O=c1ccc2cc3ccsc3cc2o1
52 | 2.93 | Cc1oc2cc3oc(=O)ccc3cc2c1C
53 | 2.43 | Cc1cc2ccc(=O)oc2c2ccoc12
54 | 2.79 | Cc1cc(=O)oc2c1cc(C)c1occc12
55 | 3.34 | Cc1oc2c(C)cc3ccc(=O)oc3c2c1C
56 | 2.96 | O=c1ccc2cc3ccsc3cc2s1
57 | 2.76 | Cc1coc2cc3oc(=O)cc(C)c3cc12
58 | 2.49 | Cc1cc2ccc3occc3c2oc1=O
59 | 2.84 | Cc1cc2c(C)c3ccc(=O)oc3cc2o1
60 | 1.97 | Cc1oc2cc3oc(=O)ncc3cc2c1C
61 | 2.92 | Cc1cc2occ(C)c2c2oc(=O)ccc12
62 | 2.81 | Cc1coc2c(C)c3oc(=O)ccc3cc12
63 | 3.28 | Cc1coc2c1c(C)cc1oc(=O)cc(C)c12
64 | 2.97 | Cc1cc2ccc3occ(C)c3c2oc1=O
65 | 2.61 | O=c1ccc2cc3ccoc3cc2s1
66 | 3.35 | Cc1c2oc(=O)ccc2c(C)c2c(C)coc12
67 | 2.84 | Cc1c(C)c2occc2c2oc(=O)ccc12
68 | 2.58 | O=c1ccc2ccc3occc3c2s1
69 | 2.92 | Cc1cc2c(cc(C)c3ccc(=O)oc32)o1
70 | 1.82 | O=c1ccc2ccc3occc3c2[nH]1
71 | 2.34 | Cc1cc(=O)oc2c1ccc1occc12

Experiment: method code SF-HPLC, from DOI: 10.1002/jps.1029, PMID: 11357176

Row | logP | Structure (SMILES)
72 | 2.08 | O=c1ccc2cc3ccoc3cc2o1
73 | 2.07 | COc1c2occc2cc2ccc(=O)oc12
